Data taken from US9980943B2, “Methods of treating muscular dystrophy” (BOARD OF REGENTS OF THE NEVADA SYSTEM OF HIGHER EDUCATION, …, priority 2013, dated 2018).

How the values were obtained:
Assay type in all cases: cell-based, mouse
[1] = test system: α7 integrin (LacZ reporter in α7βgal+/− myoblasts); assay: Myoblast α7+/LacZ integrin FDG assay (Burkin assay in myoblasts, 96-well); settings: α7+/LacZ myoblasts, 96-well; for fold induction at 0.5 µM / fold induction at 1 µM / fold induction at 5 µM / fold induction at 10 µM / fold induction at 20 µM / fold induction at 40 µM: Mus musculus, Myoblast, 48 h, read-out: Burkin Assay in Myoblasts, value relative to DMSO
[2] = test system: α7 integrin (LacZ reporter in α7+/LacZ myotubes); assay: Myotube α7 integrin FDG assay (Burkin assay in myotubes, 96-well); settings: myotubes; for fold induction at 0.5 µM / fold induction at 1 µM / fold induction at 5 µM / fold induction at 10 µM / fold induction at 20 µM / fold induction at 40 µM: Mus musculus, Myotube, read-out: Burkin Assay in Myotubes (signal relative to DMSO)
[3] = test system: β-galactosidase in CMV-LacZ C2C12 myotubes; assay: CMV-LacZ secondary screen in C2C12 myotubes (β-Gal stabilizing assay); settings: for CMV-LACZ in Myotubes, signal relative to DMSO: C2C12 CMV-LacZ myotubes, fold relative to DMSO; for CMV-LACZ in Myotubes (β-galactosidase activity relative to DMSO): CMV-LacZ C2C12 myotubes, 96-well format
In short: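 First, C2C12 myoblasts were transfected with a linearized CMV-LACZ vector and clonal lines selected by FDG β-gal assay. Then cells were exposed to compounds at 0.5, 1, 5, 10, 20 and 40 μM in 96-well format, two replicates each, and β-gal measured.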

| SMILES | CMV-LACZ in Myotubes, signal relative to DMSO ([3]; 5 uM) | CMV-LACZ in Myotubes, signal relative to DMSO ([3]; 10 uM) | CMV-LACZ in Myotubes, signal relative to DMSO ([3]; 20 uM) | CMV-LACZ in Myotubes, signal relative to DMSO ([3]; 40 uM) | Burkin Assay in Myoblasts, value relative to DMSO ([1]; 0.5 uM) | Burkin Assay in Myoblasts, value relative to DMSO ([1]; 1 uM) | Burkin Assay in Myoblasts, value relative to DMSO ([1]; 5 uM) | Burkin Assay in Myoblasts, value relative to DMSO ([1]; 10 uM) | Burkin Assay in Myoblasts, value relative to DMSO ([1]; 20 uM) | Burkin Assay in Myoblasts, value relative to DMSO ([1]; 40 uM) | Burkin Assay in Myotubes (signal relative to DMSO) ([2]; 0.5 uM) | Burkin Assay in Myotubes (signal relative to DMSO) ([2]; 1 uM) | Burkin Assay in Myotubes (signal relative to DMSO) ([2]; 5 uM) | Burkin Assay in Myotubes (signal relative to DMSO) ([2]; 10 uM) | Burkin Assay in Myotubes (signal relative to DMSO) ([2]; 20 uM) | Burkin Assay in Myotubes (signal relative to DMSO) ([2]; 40 uM) | CMV-LACZ in Myotubes (β-galactosidase activity relative to DMSO) ([3]; 5 uM) | CMV-LACZ in Myotubes (β-galactosidase activity relative to DMSO) ([3]; 10 uM) | CMV-LACZ in Myotubes (β-galactosidase activity relative to DMSO) ([3]; 20 uM) | CMV-LACZ in Myotubes (β-galactosidase activity relative to DMSO) ([3]; 40 uM) | further results |
| --- | --- | --- | --- | --- | --- | --- | --- | --- | --- | --- | --- | --- | --- | --- | --- | --- | --- | --- | --- | --- | --- |
| O=C(Nc1ccccc1F)c1ccc([N+](=O)[O-])s1 [MLS000703499-01] | 0.9313 | 0.9968 | 0.689 | 0.769 | – | – | – | – | – | – | – | – | – | – | – | – | – | – | – | – | Burkin Assay in Myoblasts, signal relative to DMSO ([1]; 0.5 uM): 0.7093; Burkin Assay in Myoblasts, signal relative to DMSO ([1]; 1 uM): 1.017; Burkin Assay in Myoblasts, signal relative to DMSO ([1]; 5 uM): 0.9278; Burkin Assay in Myoblasts, signal relative to DMSO ([1]; 10 uM): 0.7632; Burkin Assay in Myoblasts, signal relative to DMSO ([1]; 20 uM): 0.4465; Burkin Assay in Myoblasts, signal relative to DMSO ([1]; 40 uM): 0.1043; Burkin Assay in Myotubes, α7 integrin LacZ reporter signal relative to DMSO ([2]; 0.5 uM): 0.9725; Burkin Assay in Myotubes, α7 integrin LacZ reporter signal relative to DMSO ([2]; 1 uM): 0.8809; Burkin Assay in Myotubes, α7 integrin LacZ reporter signal relative to DMSO ([2]; 5 uM): 1.059; Burkin Assay in Myotubes, α7 integrin LacZ reporter signal relative to DMSO ([2]; 10 uM): 0.8518; Burkin Assay in Myotubes, α7 integrin LacZ reporter signal relative to DMSO ([2]; 20 uM): 1.101; Burkin Assay in Myotubes, α7 integrin LacZ reporter signal relative to DMSO ([2]; 40 uM): 0.4494 |
| O=C(c1ccc(Cl)c(S(=O)(=O)N2CCCCC2)c1)N1CCN(Cc2ccccc2)CC1 [MLS001060561-01] | – | – | – | – | 0.9961 | 0.9284 | 0.8266 | 0.8878 | 0.795 | 0.6318 | 0.8047 | 0.9329 | 0.9832 | 0.9977 | 0.8557 | 0.9329 | 0.9396 | 1.002 | 0.9373 | 0.6425 | – |
| Cc1ccc(S(=O)(=O)NC(C)C(=O)NC(C)c2cccs2)cc1 (stereo not drawn) [MLS001221867-01] | 0.9954 | 0.9834 | 1.0515 | 1.0745 | – | – | – | – | – | – | – | – | – | – | – | – | – | – | – | – | Burkin Assay in Myoblasts, signal relative to DMSO ([1]; 0.5 uM): 1.001; Burkin Assay in Myoblasts, signal relative to DMSO ([1]; 1 uM): 1.024; Burkin Assay in Myoblasts, signal relative to DMSO ([1]; 5 uM): 0.9275; Burkin Assay in Myoblasts, signal relative to DMSO ([1]; 10 uM): 0.922; Burkin Assay in Myoblasts, signal relative to DMSO ([1]; 20 uM): 0.9616; Burkin Assay in Myoblasts, signal relative to DMSO ([1]; 40 uM): 0.8943; Burkin Assay in Myotubes, α7 integrin LacZ reporter signal relative to DMSO ([2]; 0.5 uM): 0.9728; Burkin Assay in Myotubes, α7 integrin LacZ reporter signal relative to DMSO ([2]; 1 uM): 0.9422; Burkin Assay in Myotubes, α7 integrin LacZ reporter signal relative to DMSO ([2]; 5 uM): 0.9593; Burkin Assay in Myotubes, α7 integrin LacZ reporter signal relative to DMSO ([2]; 10 uM): 0.9374; Burkin Assay in Myotubes, α7 integrin LacZ reporter signal relative to DMSO ([2]; 20 uM): 1.02; Burkin Assay in Myotubes, α7 integrin LacZ reporter signal relative to DMSO ([2]; 40 uM): 0.9915 |
| CCNC(=O)CSc1nc(-c2ccc(F)cc2)cs1 [MLS000772194-01] | 1.068 | 0.9234 | 1.056 | 0.9968 | 1.096 | 1.059 | 1.055 | 1.082 | 1.098 | 1.149 | 0.9782 | 0.9192 | 0.9654 | 1.072 | 0.9904 | 0.7651 | – | – | – | – | – |
| O=C(N/N=C/c1cn[nH]c1-c1ccc(F)cc1)c1ccncc1 [MLS000698686-01] | 0.8364 | 0.9727 | 0.8864 | 0.8864 | 1.037 | 1.018 | 1.054 | 1.075 | 0.8456 | 0.8252 | 0.8838 | 0.6159 | 1.013 | 0.966 | 0.6986 | 0.9722 | – | – | – | – | – |
| COc1ccc(C(=O)O/N=C(\N)c2cccc(C)c2)cc1OC [MLS001165323-01] | – | – | – | – | 0.9704 | 0.9491 | 0.8821 | 0.924 | 0.8743 | 0.4779 | 0.9468 | 0.9627 | 1.166 | 1.153 | 1.054 | 1.088 | 1.072 | 0.9 | 1.315 | 1.488 | – |
| CCS(=O)(=O)N1CCN(c2ccc([N+](=O)[O-])c(NCC3CCCO3)c2)CC1 (stereo not drawn) [MLS000693370-01] | – | – | – | – | – | – | – | – | – | – | – | – | – | – | – | – | 0.9783 | 0.9621 | 0.9947 | 1.1136 | fold induction at 0.5 µM ([1]; 0.5 uM): 0.864; fold induction at 1 µM ([1]; 1 uM): 0.8; fold induction at 5 µM ([1]; 5 uM): 0.887; fold induction at 10 µM ([1]; 10 uM): 1.06; fold induction at 20 µM ([1]; 20 uM): 0.951; fold induction at 40 µM ([1]; 40 uM): 0.937; fold induction at 0.5 µM ([2]; 0.5 uM): 1.11; fold induction at 1 µM ([2]; 1 uM): 1.13; fold induction at 5 µM ([2]; 5 uM): 1.16; fold induction at 10 µM ([2]; 10 uM): 1.28; fold induction at 20 µM ([2]; 20 uM): 1.15; fold induction at 40 µM ([2]; 40 uM): 1.25 |
| O=Cc1ccc(C(=O)OCC(=O)N2CCCC2)cc1 [MLS001172577-01] | 0.8944 | 0.862 | 1.029 | 0.9627 | 0.996 | 0.9654 | 1.142 | 1.0758 | 1.0212 | 0.9431 | 1.122 | 1.0349 | 1.131 | 1.101 | 1.14 | 0.7324 | – | – | – | – | – |
| COCCn1c(=N)c(S(=O)(=O)c2ccc(Br)cc2)cc2c(=O)n3ccccc3nc21 [MLS001141113-01] | – | – | – | – | – | – | – | – | – | – | – | – | – | – | – | – | 1.134 | 1.383 | 0.9823 | 1.913 | fold induction at 0.5 µM ([1]; 0.5 uM): 1.23; fold induction at 1 µM ([1]; 1 uM): 1.06; fold induction at 5 µM ([1]; 5 uM): 1.08; fold induction at 10 µM ([1]; 10 uM): 1.07; fold induction at 20 µM ([1]; 20 uM): 0.915; fold induction at 40 µM ([1]; 40 uM): 0.56; fold induction at 0.5 µM ([2]; 0.5 uM): 1.04; fold induction at 1 µM ([2]; 1 uM): 0.854; fold induction at 5 µM ([2]; 5 uM): 1.05; fold induction at 10 µM ([2]; 10 uM): 0.929; fold induction at 20 µM ([2]; 20 uM): 0.887; fold induction at 40 µM ([2]; 40 uM): 0.812 |
